This passage reports IC50 and oral bioavailability results from patent publication US10106508B2, “Quinazoline heterocyclic compound as EGFR kinase inhibitor and preparation and application thereof” (BEIJING SCITECH-MQ PHARMACEUTICALS LIMITED, priority 2015, dated 2018).

One series deals with H358 cells. The series can be described thus: Anti-proliferative activity, cell-counting kit-8 assay, H358. The following applies: CCK-8. It counts as cell-based. How it is done: (§1) Cell Assay of EGFR Activity
(§2) The anti-proliferative activity was determined using cell-counting kit-8 assay (Dojindo, Japan). H358 and A549 cells lines were seeded at a density of 8000 cells/well and 3000 cells/well respectively in 96-well microtiter plates and were incubated at 37° C. overnight in a humidified incubator containing 5% CO2. Cells were dosed with compounds at final concentrations ranging from 0.025 to 80 μM in each well of the plate. Three groups were set up, including compound group to be tested, blank control group, positive control group (gefitinib).
(§3) The 96-well plate was incubated in cell incubator for 72 hours. The culture fluid was then removed and 100 μl/well of PBS buffer was added. 10 μl/well of CCK-8 solution was added and the assay plate was incubated in the cell incubator for 1 hour. Cell survival was determined by measuring the absorbance at 470 nm using a microplate reader. A calibration curve was prepared using the average data of the 4 wells for each concentration that contain the number of viable cells to determine the IC50 of the target compounds.

In the next series the target is EGFR (WT) (Homo sapiens (Human), UniProt P00533). In words: Kinase-Glo luminescent kinase assay, EGFR tyrosine kinase inhibitory activity (WT). The following applies: EGFR wild type. It counts as biochemical. As for the experimental part: (§4) Determination of the Compound Inhibitory Activity Against EGFR Kinase
EGFR (WT), sequence (P00533 25-1210): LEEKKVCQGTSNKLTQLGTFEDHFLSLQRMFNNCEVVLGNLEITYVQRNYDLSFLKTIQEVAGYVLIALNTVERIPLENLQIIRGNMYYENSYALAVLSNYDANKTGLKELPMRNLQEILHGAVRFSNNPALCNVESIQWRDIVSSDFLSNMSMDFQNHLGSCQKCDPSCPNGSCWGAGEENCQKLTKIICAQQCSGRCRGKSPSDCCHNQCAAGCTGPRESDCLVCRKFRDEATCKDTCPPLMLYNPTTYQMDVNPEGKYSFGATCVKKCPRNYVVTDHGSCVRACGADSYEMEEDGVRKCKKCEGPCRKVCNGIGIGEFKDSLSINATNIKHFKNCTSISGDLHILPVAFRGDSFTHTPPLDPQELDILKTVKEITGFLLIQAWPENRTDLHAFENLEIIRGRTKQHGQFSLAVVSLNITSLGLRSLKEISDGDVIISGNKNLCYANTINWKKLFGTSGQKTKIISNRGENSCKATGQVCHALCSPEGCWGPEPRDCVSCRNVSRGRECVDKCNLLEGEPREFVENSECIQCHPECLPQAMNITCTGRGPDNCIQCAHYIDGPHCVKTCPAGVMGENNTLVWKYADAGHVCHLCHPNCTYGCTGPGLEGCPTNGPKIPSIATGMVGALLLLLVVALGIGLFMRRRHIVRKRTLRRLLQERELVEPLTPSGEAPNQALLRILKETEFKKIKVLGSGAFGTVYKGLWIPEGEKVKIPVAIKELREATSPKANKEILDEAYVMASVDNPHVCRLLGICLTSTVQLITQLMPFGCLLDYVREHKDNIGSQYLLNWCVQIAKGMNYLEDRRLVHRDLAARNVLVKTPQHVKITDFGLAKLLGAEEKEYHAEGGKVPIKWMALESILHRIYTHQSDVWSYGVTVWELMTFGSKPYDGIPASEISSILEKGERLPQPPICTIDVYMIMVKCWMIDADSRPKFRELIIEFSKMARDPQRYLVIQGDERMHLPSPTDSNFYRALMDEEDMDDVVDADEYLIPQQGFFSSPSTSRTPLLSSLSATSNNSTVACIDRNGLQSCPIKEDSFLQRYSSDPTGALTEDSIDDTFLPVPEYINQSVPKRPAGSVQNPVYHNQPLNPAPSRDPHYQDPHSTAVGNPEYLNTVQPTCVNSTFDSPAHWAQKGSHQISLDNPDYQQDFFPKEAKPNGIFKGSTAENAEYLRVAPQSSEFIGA
(§5) The inhibitory activity of compounds in formula (I) and (II) were determined using Kinase-Glo luminescent kinase assay. The receptor tyrosine kinase EGFR was tested and Gefitinib, a known EGFR inhibitor, was chosen as the positive control compound. The method is detailed below:
(§6) The sample compounds were dissolved in DMSO and diluted it to 500 μM concentration with DMSO and transferred to a dose plate. The compounds were serially diluted with DMSO in 5 fold concentration. Then each concentration was diluted 10-fold with the reaction buffer to get a 10× final concentration. Transfer the compounds with concentrations ranging from 0.003 μM to 50 μM to EGFR assay plate to determine their kinase activity with a dose of 1 μL/well.
(§7) The positive control compound Gifitinib was dissolved in DMSO as 10 mM stock solution and diluted it to 100 μM concentration with DMSO. The control compound was serially diluted with DMSO in 5 fold concentration. Then each concentration was diluted 10-fold with the reaction buffer to get a 10× final concentration.
(§8) For the HPE (hundred percent effect: No kinase and no compound, but containing ATP, substrate and 1% DMSO) and ZPE (zero percent effect: No compound but containing kinase, ATP, substrate and 1% DMSO) wells, dilute 2 μL DMSO 10-fold with reaction buffer to obtain 10% DMSO solution. Then transfer it to the assay plat, 1 μL/well. The positive control wells contain kinase, ATP, substrate and positive control compound in different concentrations. The sample compound wells contain kinase, ATP, substrate and the compounds to be tested in different concentrations.
(§9) Preparation of the reagents in need: 4×ATP: dilute ATP 4 times with assay buffer to obtain a working solution; 4× substrate: dilute Poly ([…]: tyrosine) 4 times with assay buffer to obtain a working solution; 2.5×EGFR kinase: dilute EGFR kinase 2.5 times with assay buffer to obtain a working solution.
(§10) Kinase reaction: Add 10× compounds to the assay plate in a 384-well plate layout, 1 μL/well. For the HPE and ZPE wells, equal volume (1 μL/well) of 10% DMSO was added to the 384-well assay plate; Add 2.5×EGFR kinase into the assay plate in 384-well plate layout, 4 μL/well. For HPE and ZPE wells, an equal volume (4 μL/well) of assay buffer was added to the 384-well assay plate; Centrifuge the assay plate with 1000 rpm for 1 min to mix them; Pre-incubate the assay plate for 30 min at 30° C.; Mix equal volume of 4×ATP and 4× substrate to obtain 2×ATP-substrate mixture which serves as a reaction mixture for the determination of EGFR activity; Add 2×ATP-substrate mixture to the assay plate, 5 μL/well; Centrifuge the assay plate at 1000 rpm for 1 min to mix them; Incubate the assay plate for one hour at 30° C.; Add Kinase glo plus was to each well (10 μL/well), and then incubated the assay plate for 20 min at 27° C.; Read luminescence signal with Envision plate reader.

For the next series, the target named is EGFR (T790M) (Homo sapiens (Human), UniProt P00533, T790M). In words: Kinase-Glo luminescent kinase assay, EGFR tyrosine kinase inhibitory activity (T790M). It counts as biochemical. How it is done:
as §4, §5, §6, §7, §8, §9, §10
For orientation: In Kinase-Glo more light means more ATP remaining.

Another series has as its system A549 cells. The series can be described thus: Anti-proliferative activity, cell-counting kit-8 assay, A549. The following applies: CCK-8. The series is classed as cell-based. As for the experimental part:
as §1, §2, §3

For series [1] the following is noted: in vivo; cited from earlier work.

Some results are limits rather than exact numbers.

EGFR (T790M), sequence (P00533 25-1210 T790M): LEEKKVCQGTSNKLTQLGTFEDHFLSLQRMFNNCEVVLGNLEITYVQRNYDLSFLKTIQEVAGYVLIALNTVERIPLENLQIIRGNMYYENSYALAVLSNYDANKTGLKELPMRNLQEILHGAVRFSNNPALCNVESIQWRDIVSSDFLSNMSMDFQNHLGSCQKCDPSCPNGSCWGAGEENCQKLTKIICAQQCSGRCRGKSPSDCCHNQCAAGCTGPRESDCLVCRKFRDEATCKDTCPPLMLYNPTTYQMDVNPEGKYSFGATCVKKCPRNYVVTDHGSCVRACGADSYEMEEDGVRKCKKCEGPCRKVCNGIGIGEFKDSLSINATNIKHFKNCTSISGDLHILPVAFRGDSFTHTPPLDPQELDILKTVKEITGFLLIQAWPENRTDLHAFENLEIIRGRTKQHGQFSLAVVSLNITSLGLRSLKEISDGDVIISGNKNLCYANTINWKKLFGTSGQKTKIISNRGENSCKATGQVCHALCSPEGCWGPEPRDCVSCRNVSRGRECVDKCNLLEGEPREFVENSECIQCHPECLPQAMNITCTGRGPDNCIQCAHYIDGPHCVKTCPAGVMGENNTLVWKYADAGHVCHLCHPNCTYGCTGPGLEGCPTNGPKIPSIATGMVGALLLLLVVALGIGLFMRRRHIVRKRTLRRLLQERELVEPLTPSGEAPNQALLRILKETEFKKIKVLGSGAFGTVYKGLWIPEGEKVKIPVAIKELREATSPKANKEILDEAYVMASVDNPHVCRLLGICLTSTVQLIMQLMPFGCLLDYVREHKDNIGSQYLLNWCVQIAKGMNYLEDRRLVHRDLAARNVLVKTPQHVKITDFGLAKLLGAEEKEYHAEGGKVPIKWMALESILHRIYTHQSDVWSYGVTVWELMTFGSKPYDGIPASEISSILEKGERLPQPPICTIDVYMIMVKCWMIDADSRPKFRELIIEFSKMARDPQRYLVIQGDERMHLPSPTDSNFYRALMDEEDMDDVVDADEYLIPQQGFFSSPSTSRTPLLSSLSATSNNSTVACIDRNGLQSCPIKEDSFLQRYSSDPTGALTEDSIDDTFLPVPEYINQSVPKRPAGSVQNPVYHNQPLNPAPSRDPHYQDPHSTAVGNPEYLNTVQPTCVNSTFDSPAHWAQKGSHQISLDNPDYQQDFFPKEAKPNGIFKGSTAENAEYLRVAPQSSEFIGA

What is called IC50 is the point on the concentration scale where inhibition reaches its midpoint. Lower therefore signals greater potency. `CCOc1cc2ncnc(Nc3ccc(C)cc3)c2c2c1OCCO2` [Compound I-39, 5-Ethoxy-N-p-tolyl-2,3-dihydro-[1,4]dioxino[2,3-f]quinazolin-10-amine]: the IC50 in the series with H358 cells (Homo sapiens, NCI-H358, 72 h) is 6.1 µM; against EGFR (WT) it was less than 0.05 µM; against EGFR (T790M), less than 0.1 µM; with A549 cells (Homo sapiens, A549, 72 h), 10.2 µM.
On to `Fc1cc(Nc2ncnc3cc(OC4CCOC4)c4c(c23)OCCO4)ccc1Cl` (centres unmarked) [Compound I-23, N-(4-Chloro-3-fluorophenyl)-5-(tetrahydrofuran-3-yloxy)-2,3-dihydro-[1,4]dioxino[2,3-f]quinazolin-10-amine], for which the IC50 is 13 µM in the series on H358 cells (Homo sapiens, NCI-H358, 72 h); less than 0.05 µM against EGFR (WT); less than 0.1 µM against EGFR (T790M); 15.1 µM in the series with A549 cells (Homo sapiens, A549, 72 h).
Turning to `C#Cc1cccc(Nc2ncnc3cc(OCCOC)c(OCCOC)cc23)c1` [erlotinib, Erlotinib], the oral bioavailability in series [1] is on record as 80%.
Regarding `C#Cc1cccc(Nc2ncnc3cc(OC(C)C)c4c(c23)OCCO4)c1` [Compound I-8, N-(3-Ethynylphenyl)-5-isopropoxy-2,3-dihydro-[1,4]dioxino[2,3-f]quinazolin-10-amine], the IC50 in the series on H358 cells (Homo sapiens, NCI-H358, 72 h) was 5.54 µM; on EGFR (WT), less than 0.05 µM; against EGFR (T790M), less than 0.05 µM; with A549 cells (Homo sapiens, A549, 72 h) it was 6.08 µM.
With `O=C1COc2cc3ncnc(Nc4ccc(F)c(Cl)c4)c3cc2N1CCCN1CCOCC1` [II-2, 4-((3-Chloro-4-fluorophenyl)amino)-6-(3-morpholinopropyl)-6H-[1,4]oxazino[3,2-g]quinazolin-7(8H)-one], the IC50 was 13.5 µM with H358 cells (Homo sapiens, NCI-H358, 72 h); less than 0.2 µM on EGFR (WT); less than 1 µM against EGFR (T790M); 5.58 µM with A549 cells (Homo sapiens, A549, 72 h).
The like results for `Fc1cc(Nc2ncnc3cc(OC4CCOCC4)c4c(c23)OCCO4)ccc1Cl` [Compound I-22, N-(4-Chloro-3-fluorophenyl)-5-(tetrahydro-2H-pyran-4-yloxy)-2,3-dihydro-[1,4]dioxino[2,3-f]-quinazolin-10-amine] were, in that order, more than 20 µM, less than 0.1 µM, less than 1 µM and more than 20 µM.
Consider `COCC(C)Oc1cc2ncnc(Nc3ccc(F)c(Cl)c3)c2c2c1OCCO2` (centres unmarked) [Compound I-25, N-(3-Chloro-4-fluorophenyl)-5-(1-methoxypropan-2-yloxy)-2,3-dihydro-[1,4]dioxino[2,3-H]quinazolin-10-amine], for which the IC50 was 10.6 µM in the series with H358 cells (Homo sapiens, NCI-H358, 72 h) and 10.4 µM in the series on A549 cells (Homo sapiens, A549, 72 h).
On to `COCCOc1cc2ncnc(Nc3cccc(OC)c3)c2c2c1OCCO2` [Compound I-33, 5-(2-Methoxyethoxy)-N-(3-methoxyphenyl)-2,3-dihydro-[1,4]dioxino[2,3-f]quinazolin-10-amine], for which the IC50 was 9.64 µM in the series on H358 cells (Homo sapiens, NCI-H358, 72 h); less than 0.2 µM against EGFR (WT); less than 1 µM against EGFR (T790M); 12.1 µM in the series on A549 cells (Homo sapiens, A549, 72 h).
The corresponding values for `CCOc1cc2ncnc(Nc3ccc(C)c(Cl)c3)c2c2c1OCCO2` [Compound I-37, N-(3-Chloro-4-methylphenyl)-5-ethoxy-2,3-dihydro-[1,4]dioxino[2,3-f]quinazolin-10-amine] are 11.6 µM, less than 0.05 µM, less than 0.05 µM and 12.1 µM.
The like results for `COCCOc1cc2ncnc(Nc3ccc(F)c(Cl)c3)c2c2c1OCCO2` [Compound I-30, N-(3-Chloro-4-fluorophenyl)-5-(2-methoxyethoxy)-2,3-dihydro-[1,4]dioxino[2,3-f]quinazolin-10-amine] were, in that order, 5.93 µM, less than 0.05 µM, less than 0.05 µM and 13.9 µM.
`C#Cc1cccc(Nc2ncnc3cc(OCC)c4c(c23)OCCO4)c1` [Compound I-35, 5-Ethoxy-N-(3-ethynylphenyl)-2,3-dihydro-[1,4]dioxino[2,3-f]quinazolin-10-amine]: the IC50 in the series on H358 cells (Homo sapiens, NCI-H358, 72 h) is 8.89 µM; against EGFR (WT) it was less than 0.05 µM; against EGFR (T790M) it was less than 0.05 µM; with A549 cells (Homo sapiens, A549, 72 h), 10.5 µM.
As to `C#Cc1cccc(Nc2ncnc3cc(OCC4CCCO4)c4c(c23)OCCO4)c1` (centres unmarked) [Compound I-41, N-(3-Ethynylphenyl)-5-((tetrahydrofuran-2-yl)methoxy)-2,3-dihydro-[1,4]dioxino[2,3-f]quinazolin-10-amine], the IC50 in the series on H358 cells (Homo sapiens, NCI-H358, 72 h) was 9.51 µM; at EGFR (WT), less than 0.05 µM; against EGFR (T790M), less than 0.1 µM; in the series on A549 cells (Homo sapiens, A549, 72 h), 11.5 µM.
The like results for `C#Cc1cccc(Nc2ncnc3cc(OC4CCOCC4)c4c(c23)OCCO4)c1` [Compound I-21, N-(3-Ethynylphenyl)-5-(tetrahydro-2H-pyran-4-yloxy)-2,3-dihydro-[1,4]dioxino[2,3-f]quinazolin-10-amine] were, in that order, 1.47 µM, less than 0.1 µM, less than 1 µM and 6.42 µM.
For the molecule `C#Cc1cccc(Nc2ncnc3cc(OC4CCOC4)c4c(c23)OCCO4)c1` (centres unmarked) [Compound I-24, N-(3-Ethynylphenyl)-5-(tetrahydrofuran-3-yloxy)-23-dihydro-[1,4]dioxino[2,3-f]quinazolin-10-amine], the IC50 with H358 cells (Homo sapiens, NCI-H358, 72 h) is 8.58 µM; at EGFR (WT), less than 0.05 µM; against EGFR (T790M), less than 0.3 µM; with A549 cells (Homo sapiens, A549, 72 h), 9.69 µM.
For `O=C1COc2cc3ncnc(Nc4ccc(F)c(Cl)c4)c3cc2N1CCCN1CCOCC1` [II-1, 4-((3-Chloro-4-fluorophenyl)amino)-6-(3-morpholinopropyl)-6H-[1,4]oxazino[3,2-g]quinazolin-7(8H)-one], the IC50 with H358 cells (72 hours) is 13.5 µM; at EGFR (WT) it was less than 0.05 µM; at EGFR (T790M), less than 0.3 µM; in the series with A549 cells (72 hours), 7.51 µM.
As to `CCOC(C)Oc1cc2ncnc(Nc3ccc(F)c([N+](=O)[O-])c3)c2c2c1OCCO2` (centres unmarked) [Compound I-16, 5-(1-Ethoxyethoxy)-N-(4-fluoro-3-nitrophenyl)-2,3-dihydro-[1,4]dioxino[2,3-f]quinazolin-10-amine], the IC50 was 17.5 µM in the series on H358 cells (Homo sapiens, NCI-H358, 72 h); less than 0.3 µM against EGFR (WT); less than 0.3 µM at EGFR (T790M); 17.5 µM in the series with A549 cells (Homo sapiens, A549, 72 h).
`CC(C)Oc1cc2ncnc(Nc3ccc(F)c(Cl)c3)c2c2c1OCCO2` [Compound I-7, N-(3-Chloro-4-fluorophenyl)-5-isopropoxy-2,3-dihydro-[1,4]dioxino[2,3-f]quinazolin-10-amine]: the IC50 in the series on H358 cells (Homo sapiens, NCI-H358, 72 h) was 6.92 µM; against EGFR (WT) it was less than 0.05 µM; against EGFR (T790M) it was less than 0.05 µM; in the series with A549 cells (Homo sapiens, A549, 72 h), 11.6 µM.
In the case of `CC(C)Oc1cc2ncnc(Nc3ccc(OCc4cccc(F)c4)c(Cl)c3)c2c2c1OCCO2` [Compound I-27, N-(3-Chloro-4-((3-fluorobenzyl)oxy)phenyl)-5-isopropoxy-2,3-dihydro-[1,4]dioxino[2,3-f]quinazolin-10-amine], the IC50 was less than 0.2 µM on EGFR (WT) and less than 1 µM against EGFR (T790M).
In the case of `COCCOc1cc2ncnc(Nc3ccc(F)cc3)c2c2c1OCCO2` [Compound I-32, N-(4-fluorophenyl)-5-(2-methoxyethoxy)-2,3-dihydro-[1,4]dioxino[2,3-f]quinazolin-10-amine], the values for the IC50 on EGFR (WT) and against EGFR (T790M) were less than 0.2 µM and less than 1 µM, respectively.
Consider `CCOc1cc2ncnc(Nc3cccc(OC)c3)c2c2c1OCCO2` [Compound I-36, 5-Ethoxy-N-(3-methoxyphenyl)-2,3-dihydro-[1,4]dioxino[2,3-f]quinazolin-10-amine], for which the IC50 is 7.41 µM in the series on H358 cells (Homo sapiens, NCI-H358, 72 h); less than 0.05 µM on EGFR (WT); less than 0.05 µM at EGFR (T790M); 12 µM in the series on A549 cells (Homo sapiens, A549, 72 h).
